Patent US20060111289A1, “Compositions and methods of using Alpha-fetoprotein growth inhibitory peptides” (Serometrix, LLC,, priority 2004, published 2006)
“Also recorded” adds a separate entry of the source.

Tests used:
[1] = tested on: MCF-7 and GI-101 cells; assay: ATP luminescence cytostatic assay (6 days); assay type: cell-based, human; conditions: peptide 10^−12 to 10^−8 M
Description: FIG. 2 presents exemplary data for both in vivo and in vitro growth suppressive activities of the GIP-derived P149 and control peptides are depicted in GI-101 human ductal breast carcinoma and in MCF-7 human glandular breast carcinoma. • Panels A and A2: GI-101 and MCF-7 xenograft in nude mice administered P149 time-release pellets for 60 days and 30 days, respectively (N=5 mice/group). • Panels B and B2: GI-101 and MCF-7 in cell cultures treated with P149 and P187 at concentrations from 10-8 to 10-12 M for 6 days and assayed by ATP luminescence reagent employing a luciferin-luciferase system. The ATP assay, used to distinguish between cytostasis versus cytotoxicity, was used to confirm that P149 was cytostatic in its cell inhibitory activity at 6 days (see text for details).
In order to confirm whether P149 was indeed cytostatic, and not cytotoxic, an ATP-based cytostatic assay was performed which measures the decrease in cytosolic ATP during drug (i.e., for example, GIP peptide) treatment. This ATP luminescence assay has long been employed to distinguish between cytostatic versus cytotoxic chemotherapeutic sensitivity of drugs. […] After incubation of the cell cultures for 6 days, cytosolic ATP was extracted, stabilized, and quantitated from a standard curve produced from Berthold LB-96P luminometer readings using a luciferin-luciferase counting reagent.

[2] = tested on: 6WI-1 mammary tumor cells; assay: 6WI-1 mammary tumor in 15-day old mouse pups (6 day assay); assay type: in vivo; conditions: mouse, in vivo
Description: As an alternative model of the 6WI-I mammary tumor in adult mice, an inocula of 1×10^6 tumor cells injected into 15-day old mouse pups provided a 6 day rather than a 12 day assay and replicated the same tumor growth suppression by GIP.

[3] = tested on: 6WI-1 mammary tumor cells; assay: Mouse ascites mammary tumor assay (6WI-1 isograft); assay type: in vivo
Description: The growth suppression of the mammary ascites tumor by AFP peptides and its fragments P149a, P149b and P149c, and control peptides were determined in non-estrogen dependent assays which measured tumor cell growth and ascites accumulation of 6WI-1 mammary transplanted NYLAR/nya mice. […] Tumor cell inocula included doses of 0.3, 1.0, and 3.0×10^6 cells which produced host mortality at 12-14 days which was lethal in 100% of the animals. Following peptide dose titration studies, mice inoculated with 6WI-1 mammary cells were injected with a previously-determined optimal dose of 1.0 μg peptide per day or saline for 11 days. On day 12 following inoculation, the total accumulated ascites fluid volume and tumor cells in the peritoneal cavity of each animal were harvested and the cell count determined.
Inoculation of mice with all three cell doses led to an increase in body weight from 25 g (day 0) to approximately […] by day 12, due to the accumulation of tumor cells and ascites fluid in the intraperitoneal cavity. An average cell count in accumulated ascites fluid on day 12 was greater than 10^8 cells/ml with a total ascites volume approximating 20 mls. Tumor cell proliferation in this model has been reported to correlate with the volume of ascites fluid accumulated.
The 6WI-1 mouse mammary tumor studies involving peptide and non-peptide treatment were further compared by histopathological analysis performed on hematoxylin/eosin stained tissue sections.

[4] = tested on: LNCaP human prostate tumor cells; assay: Whole-cell voltage clamp of LNCaP cells; assay type: cell-based; conditions: 10 μM
Description: LNCaP human prostate tumor cells were cultured on 5×5 mm plastic coverslips and were transferred to a microperfusion chamber on the stage of an inverted microscope. Whole-cell voltage clamp was accomplished with an Axopatch 200B (Axon Instr. Co., Union City, Calif.) using ruptured patches. Borosilicate glass capillaries (1.2 mm OD, 0.68 ID, type EN-I, Garner Glass Co., Claremont, Calif.) were used to fabricate patch pipettes (3-8 MΩ in the bath solution) with a Brown-Flaming horizontal micropipette puller (P-87, Sutter Instruments, San Rafael, Calif.). Patch-pipette tips were heat-polished prior to use. A micromanipulator (Narishige) fixed to the microscope positioned the pipettes. Electrode capacitance and access resistance were compensated prior to measurements. All experiments will be performed at room temperature (20-22° C.). The standard extracellular salt solution for ion currents contained (in mM): 150 NaCl, 6 KCl, 1.5 CaCl2, 1 MgCl2, 10 HEPES, 10 glucose, and pH adjusted to 7.4 with 1 N NaOH. […] Electrophysiological recordings were procured and analyzed using PClamp8 software (Axon Instr. Co, Union City, Calif.) and the WinASCD software (Guy Droogmans, Katholieke Universiteit; Leuven, B E). All results were recorded on computer hard drive or on digital audio tape (DAT). […]

[5] = 1 × 10^6 tumor cells I.P., daily injections for eleven days, N = 5

Question: How did the “Growth inhibition / decrease in cytosolic ATP in the ATP luminescence assay” value [1] turn out when “LSENKLLACGEGAANIIIGHLCIRHEMTPVNPGV (listed as Homo sapiens) [P187]” was run?
Answer: significantly different; also recorded: equally responsive as P149 at 10^−8 M

Question: And the “Growth inhibitory potency in the mouse pup model compared with P149” value [2]?
Answer: slightly less growth inhibitory potency

Question: Which “Suppression of accumulation of cells and ascites fluid volume (anticancer activity)” value ([3]; 1.0 μg peptide per day for 11 days) does the source give for “GINHLPSDAVGTAIEVMPCLRDGKLCIGAEHIEL (listed as Homo sapiens) [P327]” here?
Answer: totally lacked anticancer activity

Question: And the “Metastatic histopathological findings: Abdominal Muscle” value [3, 5]?
Answer: Focal tumor infiltrate

Question: And the “Metastatic histopathological findings: Gross Findings” value [3, 5]?
Answer: Presence of tumor

Question: And the “Metastatic histopathological findings: Kidney” value [3, 5]?
Answer: No infiltrate

Question: And the “Metastatic histopathological findings: Liver” value [3, 5]?
Answer: No infiltrate

Question: And the “Metastatic histopathological findings: Pancreas” value [3, 5]?
Answer: Distinct presence of

Question: And the “Metastatic histopathological findings: Retro-peritoneal mesentery and fat” value [3, 5]?
Answer: Extensive tumor infiltrate

Question: And the “Metastatic histopathological findings: Spleen” value [3, 5]?
Answer: No infiltrate

Question: What about the “Metastatic histopathological findings: Uterus + Ovary” value [3, 5] of the same sequence?
Answer: Tumor encased organ

Question: And the “Metastatic tumor infiltration, histopathology summary” value ([3]; mouse, in vivo)?
Answer: high-to-moderate tumor infiltrates

Question: And the Whole-cell membrane current [4]?
Answer: no effect on membrane current
